Reference: US20100099561A1, “HETEROBICYCLIC ALKYLTHIO-BRIDGED ISOXAZOLINES” (E.I. DU PONT DE NEMOURS AND COMPANY, priority 2008, published 2010)

Key:
Assay type in all cases: in vivo
[1] = test system: wheat (Triticum aestivum); experiment: Test A preemergence, wheat; conditions: 0 to 100 scale (0 no effect, 100 complete control)
Procedure, shortened: (§1)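 Seeds planted in loam–sand blend; compounds in non-phytotoxic solvent with surfactant applied as directed preemergence soil spray, or postemergence to plants 2–10 cm tall at one- to two-leaf stage. After ~10 days in greenhouse, injury rated visually versus untreated controls on 0–100 scale (100 = complete control).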

[2] = test system: velvetleaf (Abutilon theophrasti); experiment: Test A preemergence, velvetleaf; conditions: 0 to 100 scale (0 no effect, 100 complete control)
Procedure, shortened: as §1

[3] = test system: morningglory (Ipomoea spp.); experiment: Test A postemergence, morningglory; conditions: 0 to 100 scale (0 no effect, 100 complete control)
Procedure, shortened: as §1

corn (Zea mays) [4] = experiment: Test A postemergence, corn; conditions: 0 to 100 scale (0 no effect, 100 complete control)
Procedure, shortened: as §1

[5] = test system: large crabgrass (Digitaria sanguinalis); experiment: Test A postemergence, large crabgrass; conditions: 0 to 100 scale (0 no effect, 100 complete control)
Procedure, shortened: as §1

[6] = test system: umbrella sedge (Cyperus difformis); experiment: Test B flooded paddy test, umbrella sedge; conditions: Flood, scale 0 to 100
Procedure, shortened: (§2)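 Compounds were added directly to paddy water over 2-leaf-stage plants in pots flooded 3 cm above soil, water depth maintained. Visual injury scored against controls after 13 to 15 days in greenhouse, 0 (none) to 100 (complete control); dash indicates no result.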

[7] = test system: barnyardgrass (Echinochloa crus-galli); experiment: Test A postemergence, barnyardgrass; conditions: 0 to 100 scale (0 no effect, 100 complete control)
Procedure, shortened: as §1

[8] = test system: pigweed (Amaranthus retroflexus); experiment: Test A postemergence, pigweed; conditions: 0 to 100 scale (0 no effect, 100 complete control)
Procedure, shortened: as §1

rice (Oryza sativa) = experiment: Test B flooded paddy test, rice; conditions: Flood, scale 0 to 100
Procedure, shortened: as §2

[9] = test system: pigweed (Amaranthus retroflexus); experiment: Test A preemergence, pigweed; conditions: 0 to 100 scale (0 no effect, 100 complete control)
Procedure, shortened: as §1

[10] = test system: morningglory (Ipomoea spp.); experiment: Test A preemergence, morningglory; conditions: 0 to 100 scale (0 no effect, 100 complete control)
Procedure, shortened: as §1

[11] = test system: ducksalad (Heteranthera limosa); experiment: Test B flooded paddy test, ducksalad; conditions: Flood, scale 0 to 100
Procedure, shortened: as §2

[12] = test system: wheat (Triticum aestivum); experiment: Test A postemergence, wheat; conditions: 0 to 100 scale (0 no effect, 100 complete control)
Procedure, shortened: as §1

[13] = test system: velvetleaf (Abutilon theophrasti); experiment: Test A postemergence, velvetleaf; conditions: 0 to 100 scale (0 no effect, 100 complete control)
Procedure, shortened: as §1

[14] = test system: giant foxtail (Setaria faberi); experiment: Test A postemergence, giant foxtail; conditions: 0 to 100 scale (0 no effect, 100 complete control)
Procedure, shortened: as §1

[15] = test system: barnyardgrass (Echinochloa crus-galli); experiment: Test A preemergence, barnyardgrass; conditions: 0 to 100 scale (0 no effect, 100 complete control)
Procedure, shortened: as §1

[16] = test system: large crabgrass (Digitaria sanguinalis); experiment: Test A preemergence, large crabgrass; conditions: 0 to 100 scale (0 no effect, 100 complete control)
Procedure, shortened: as §1

corn (Zea mays) [17] = experiment: Test A preemergence, corn; conditions: 0 to 100 scale (0 no effect, 100 complete control)
Procedure, shortened: as §1

[18] = test system: giant foxtail (Setaria faberi); experiment: Test A preemergence, giant foxtail; conditions: 0 to 100 scale (0 no effect, 100 complete control)
Procedure, shortened: as §1

[19] = test system: barnyardgrass (Echinochloa crus-galli); experiment: Test B flooded paddy test, barnyardgrass; conditions: Flood
Procedure, shortened: as §2

[20] = 250 g ai/ha, scale 0 to 100 (0 no effect, 100 complete control)

CC1(C)CC([S+]([O-])Cc2c(C(F)(F)Cl)nc3n(c2=O)CCCS3)=NO1 (centres unmarked) [Compound 36]
Plant response rating, Wheat ([1]; 125 g ai/ha): 0 | Plant response rating, Wheat ([1]; 500 g ai/ha): 0 | Plant response rating, Velvetleaf ([2]; 125 g ai/ha): 0 | Plant response rating, Velvetleaf ([2]; 500 g ai/ha): 0 | Plant response rating, Morningglory ([3]; 125 g ai/ha): 0 | Plant response rating, Morningglory ([3]; 500 g ai/ha): 30 | Plant response rating, Corn (corn (Zea mays) [4]; 500 g ai/ha): 0 | Plant response rating, Crabgrass, Large ([5]; 125 g ai/ha): 30 | Plant response rating, Crabgrass, Large ([5]; 500 g ai/ha): 50 | Plant response rating, Sedge, Umbrella ([6]; 31 g ai/ha): 0 | Plant response rating, Sedge, Umbrella ([6]; 62 g ai/ha): 0 | Plant response rating, Sedge, Umbrella ([6]; 125 g ai/ha): 0 | Plant response rating, Sedge, Umbrella ([6]; 250 g ai/ha): 0 | Plant response rating, Barnyardgrass ([7]; 125 g ai/ha): 20 | Plant response rating, Barnyardgrass ([7]; 500 g ai/ha): 50 | Plant response rating, Pigweed ([8]; 125 g ai/ha): 0 | Plant response rating, Pigweed ([8]; 500 g ai/ha): 0 | Plant response rating, Rice (rice (Oryza sativa); 31 g ai/ha): 0 | Plant response rating, Rice (rice (Oryza sativa); 62 g ai/ha): 0 | Plant response rating, Rice (rice (Oryza sativa); 125 g ai/ha): 0 | Plant response rating, Rice (rice (Oryza sativa); 250 g ai/ha): 0 | Plant response rating, Pigweed ([9]; 125 g ai/ha): 0 | Plant response rating, Pigweed ([9]; 500 g ai/ha): 0 | Plant response rating, Morningglory ([10]; 125 g ai/ha): 0 | Plant response rating, Morningglory ([10]; 500 g ai/ha): 0 | Plant response rating, Ducksalad ([11]; 31 g ai/ha): 0 | Plant response rating, Ducksalad ([11]; 62 g ai/ha): 0 | Plant response rating, Ducksalad ([11]; 125 g ai/ha): 0 | Plant response rating, Ducksalad ([11]; 250 g ai/ha): 0 | Plant response rating, Wheat ([12]; 125 g ai/ha): 0 | Plant response rating, Wheat ([12]; 500 g ai/ha): 20 | Plant response rating, Velvetleaf ([13]; 125 g ai/ha): 0 | Plant response rating, Velvetleaf ([13]; 500 g ai/ha): 0 | Plant response rating, Foxtail, Giant ([14]; 125 g ai/ha): 50 | Plant response rating, Foxtail, Giant ([14]; 500 g ai/ha): 60 | Plant response rating, Barnyardgrass ([15]; 125 g ai/ha): 0 | Plant response rating, Barnyardgrass ([15]; 500 g ai/ha): 60 | Plant response rating, Crabgrass, Large ([16]; 125 g ai/ha): 30 | Plant response rating, Crabgrass, Large ([16]; 500 g ai/ha): 50 | Plant response rating, Corn (corn (Zea mays) [17]; 125 g ai/ha): 0 | Plant response rating, Corn (corn (Zea mays) [17]; 500 g ai/ha): 10 | Plant response rating, Foxtail, Giant ([18]; 125 g ai/ha): 30 | Plant response rating, Foxtail, Giant ([18]; 500 g ai/ha): 70 | Plant response rating, Barnyardgrass ([19]; 31 g ai/ha, scale 0 to 100): 0 | Plant response rating, Barnyardgrass ([19]; 62 g ai/ha, scale 0 to 100): 0 | Plant response rating, Barnyardgrass ([19]; 125 g ai/ha, scale 0 to 100): 0 | Plant response rating, Barnyardgrass [19, 20]: 0

CCn1c(=O)c(C[S+]([O-])C2=NOC(C)(C)C2)nc2cccnc21 (centres unmarked) [Compound 38]
Plant response rating, Wheat ([1]; 125 g ai/ha): 0 | Plant response rating, Wheat ([1]; 500 g ai/ha): 0 | Plant response rating, Velvetleaf ([2]; 125 g ai/ha): 0 | Plant response rating, Velvetleaf ([2]; 500 g ai/ha): 0 | Plant response rating, Morningglory ([3]; 125 g ai/ha): 0 | Plant response rating, Morningglory ([3]; 500 g ai/ha): 10 | Plant response rating, Corn (corn (Zea mays) [4]; 125 g ai/ha): 0 | Plant response rating, Corn (corn (Zea mays) [4]; 500 g ai/ha): 0 | Plant response rating, Crabgrass, Large ([5]; 125 g ai/ha): 0 | Plant response rating, Crabgrass, Large ([5]; 500 g ai/ha): 20 | Plant response rating, Sedge, Umbrella ([6]; 31 g ai/ha): 0 | Plant response rating, Sedge, Umbrella ([6]; 62 g ai/ha): 0 | Plant response rating, Sedge, Umbrella ([6]; 125 g ai/ha): 0 | Plant response rating, Sedge, Umbrella ([6]; 250 g ai/ha): 0 | Plant response rating, Barnyardgrass ([7]; 125 g ai/ha): 20 | Plant response rating, Barnyardgrass ([7]; 500 g ai/ha): 30 | Plant response rating, Pigweed ([8]; 125 g ai/ha): 0 | Plant response rating, Pigweed ([8]; 500 g ai/ha): 0 | Plant response rating, Rice (rice (Oryza sativa); 31 g ai/ha): 0 | Plant response rating, Rice (rice (Oryza sativa); 62 g ai/ha): 0 | Plant response rating, Rice (rice (Oryza sativa); 125 g ai/ha): 0 | Plant response rating, Rice (rice (Oryza sativa); 250 g ai/ha): 0 | Plant response rating, Pigweed ([9]; 125 g ai/ha): 0 | Plant response rating, Pigweed ([9]; 500 g ai/ha): 0 | Plant response rating, Morningglory ([10]; 125 g ai/ha): 0 | Plant response rating, Morningglory ([10]; 500 g ai/ha): 0 | Plant response rating, Ducksalad ([11]; 31 g ai/ha): 0 | Plant response rating, Ducksalad ([11]; 62 g ai/ha): 0 | Plant response rating, Ducksalad ([11]; 125 g ai/ha): 0 | Plant response rating, Ducksalad ([11]; 250 g ai/ha): 0 | Plant response rating, Wheat ([12]; 125 g ai/ha): 0 | Plant response rating, Wheat ([12]; 500 g ai/ha): 10 | Plant response rating, Velvetleaf ([13]; 125 g ai/ha): 0 | Plant response rating, Velvetleaf ([13]; 500 g ai/ha): 30 | Plant response rating, Foxtail, Giant ([14]; 125 g ai/ha): 0 | Plant response rating, Foxtail, Giant ([14]; 500 g ai/ha): 0 | Plant response rating, Barnyardgrass ([15]; 125 g ai/ha): 0 | Plant response rating, Barnyardgrass ([15]; 500 g ai/ha): 0 | Plant response rating, Crabgrass, Large ([16]; 125 g ai/ha): 0 | Plant response rating, Crabgrass, Large ([16]; 500 g ai/ha): 0 | Plant response rating, Corn (corn (Zea mays) [17]; 125 g ai/ha): 0 | Plant response rating, Corn (corn (Zea mays) [17]; 500 g ai/ha): 0 | Plant response rating, Foxtail, Giant ([18]; 125 g ai/ha): 0 | Plant response rating, Foxtail, Giant ([18]; 500 g ai/ha): 0 | Plant response rating, Barnyardgrass ([19]; 31 g ai/ha, scale 0 to 100): 0 | Plant response rating, Barnyardgrass ([19]; 62 g ai/ha, scale 0 to 100): 0 | Plant response rating, Barnyardgrass ([19]; 125 g ai/ha, scale 0 to 100): 0 | Plant response rating, Barnyardgrass [19, 20]: 0
